This note sets out measurements from patent EP0403963A2, “Anthracycline derivatives, process for their preparation and their use as medicaments” (priority 1989, dated 1990).

≈ marks a conversion by molar mass, not a printed value. Where two headings read alike, the source gives them in different places.

The nature of data set [1]: Acute toxicity, intravenous injection. Type of data set: in vivo, Mäusen. The conditions noted are these: mouse, in vivo, iv; i.v. on day 0, 3 and 6; survivors counted on day 20; 2 mice per dose; read-out: akute Toxizität LD50. On the procedure: (§1) Zur Ermittlung der akuten Toxizität wurden BDFi-Mäusen am Tag 0, Tag 3 und Tag 6 unterschiedliche Dosen der Testsubstanz, gelöst in 0,4 ml physiologischer Kochsalzlösung, intravenös injiziert. Kontrollgruppen erhielten lediglich 0,4 ml physiologischer Kochsalzlösung. Pro Konzentration der Testsubstanz wurden 2 Mäuse verwendet. Am Tag 20 wurde die Zahl der überlebenden Mäuse und daraus die LD50 ermittelt. Die Toxizität der hier beschriebenen Verbindungen im Vergleich zu Adriamycin ist in Tabelle 1 zusammengefaßt.

Data set [2] in a line: Qualitative solubility of the isolated substance. Type of data set: physicochemical. The conditions noted are these: solvents: Methanol, Ethylacetat, Chloroform, Wasser, Hexan.
The next data set relates to L1210 Leukämiezellen. The data set can be described thus: Proliferation test (MTT), continuous incubation. It is filed as cell-based, Maus. As to conditions: for IC50: Mus musculus, read-out: Zytotoxizität (Dauerinkubation) IC50. On the procedure:
Kontrollen bestehen aus Zellen, die lediglich mit frischem Medium inkubiert werden. Alle Bestimmungen werden als 4-fache Bestimmung durchgeführt. Nach 65 Stunden werden 50 ul MTT (3-(4,5-Dimethylthiazol-2-yl)-2,5-diphenyl-tetrazoliumbromid, 2,5 mg/mi in PBS) zugegeben. MTT wird durch lebende Zellen zu einem […], unlöslichen Formazan-Farbstoff reduziert. Nach einer weiteren 7-stündigen Inkubation wird das überstehende Medium vorsichtig abgesaugt. Der Formazan-Farbstoff wird durch Zugabe von jeweils 100 ul DMSO in die Vertiefungen der Mikrotiterplatte und vorsichtiges Schütteln gelöst. Die Extinktion der jeweiligen Lösung wird mit Hilfe eines Multiscan Photometers 340 CC, Fa. Flow, bei 492 nm gemessen.

Another data set deals with BDFi-Mäusen. The data set can be described thus: Acute toxicity, intravenous injection. It is filed as in vivo. The conditions noted are these: i.v. on day 0, 3 and 6; survivors counted on day 20; 2 mice per dose; 28800 min. On the procedure: as §1
The mark [3] stands for this setting: L1210 cells, 72 h incubation, MTT readout at 492 nm.

The LD50 is the dose expected to kill half of the subjects tested. A word on the IC50: it is the concentration that inhibits the measured activity by half. On to `CC[C@@]1(O[C@H]2C[C@H](N(C)C)[C@H](O)[C@H](C)O2)CCc2c(O)c3c(c(O)c2[C@H]1O[C@H]1C[C@H](N(C)C)[C@H](O)[C@H](C)O1)C(=O)c1cccc(O)c1C3=O` [9-0,10-0-Bis (α-L-rhodosaminyl)-γ-rhodomycinon], for which the LD50 at 480 h in data set [1] lay in the range of 25 to 50 mg/kg. In addition, in data set [2], the Löslichkeit result is given as “leicht löslich in Methanol, Ethylacetat, Chloroform, unlöslich in Wasser und Hexan”. In addition, the IC50 with L1210 Leukämiezellen (setting [3]) worked out at 0.35 mg/L (≈ 0.511 µM).

`COc1cccc2c1C(=O)c1c(O)c3c(c(O)c1C2=O)C[C@@](O)(C(=O)CO)C[C@@H]3O[C@H]1C[C@H](N)[C@H](O)[C@H](C)O1` [Adriamycin, reference compound]: the median lethal dose (LD50) at 480 h in data set [1] amounted to 10 mg/kg. In the data set on L1210 Leukämiezellen (L1210, 72 h), the IC50 is 0.02 to 0.03 mg/L (≈ 0.0368 to 0.0552 µM).

On to Cytorhodin Z, for which the “akute Toxizität LD50” value in the data set with BDFi-Mäusen fell in the range of 10 to 25 mg/kg. For the same compound, the Löslichkeit entry in data set [2] was “leicht löslich in Methanol, Ethylacetat, Chloroform, unlöslich in Wasser und Hexan”. The “Zytotoxizität (Dauerinkubation) IC50” value in the data set on L1210 Leukämiezellen (setting [3]) is on record as 0,33 µg/ml.
